Columns and labels:
[1] = tested on: Fragile X (Fmr1) knockout mouse; experiment: Social preference and social novelty, Fragile X model; type: in vivo; details: male Fmr1 KO mice, weekly suramin 20 mg/kg ip
Source text: A Fragile X (Fmr1) knockout mouse was used on the FVB strain background. It has the genotype: FVB.129P2-Pde6b^+ Tyr^c-ch Fmr1^tm1Cgr/J (Jackson Stock #004624). The Fmr1^tm1Cgr allele contains a neomycin resistance cassette replacing exon 5 that results in a null allele that makes no FMR mRNA or protein. The control strain used has the genotype: FVB.129P2-Pde6b^+ Tyr^c-ch/AntJ (Jackson Stock #004828). […] The wild-type Pde6b locus from the 129P2 ES cells corrects the retinal degeneration phenotype that produces blindness by 5 weeks of age in typical FVB mice. The Fmr1 locus is X-linked, so males are hemizygous and females are homozygous for the knockout. A metabolomic analysis on Fmr1 knockout mice on the C57BL/6J background was also performed to refine the understanding of which metabolic disturbances were directly related to the Fmr1 knockout, and which were the result of changes in genetic background. For these studies the same Fmr1^tm1Cgr knockout allele bred on the C57BL6/J background was used. These animals had the genotype: B6.129P2-Fmr1^tm1Cgr/J (Jackson Stock#003025). […]
Altered social behavior is a measure of autism-like features in mouse models of autism. […] There was also a 35% reduction in social novelty, as measured by the time spent interacting with a novel mouse compared to a familiar mouse. […]

[2] = tested on: maternal immune activation (MIA) mouse model; experiment: Rotarod (latency to fall), MIA model; type: in vivo; details: MIA 6-month-old adults, single injection of suramin
Source text: (N=8-13, 6.75-month-old males per group).
Previous studies have shown age-dependent, postnatal loss of cerebellar Purkinje cells in the MIA model. This can reach up to 60% of Purkinje cells lost by 4 months (16 weeks) of age. Motor coordination measured by rotarod performance is deficient in the MIA model and is critically dependent on the integrity of Purkinje cell circuits in the cerebellum. Since Purkinje cells are known to be lost in MIA animals by 4 months (16 weeks) of age, it was hypothesized that APT given later in life would have no effect. The results confirmed this. […] Although cerebellar Purkinje cell density was not quantified in this study, our results are consistent with the notion that once Purkinje cells are lost, their function cannot be restored by APT in adult animals.

For `Cc1ccc(C(=O)Nc2ccc(S(=O)(=O)O)c3cc(S(=O)(=O)O)cc(S(=O)(=O)O)c23)cc1NC(=O)c1cccc(NC(=O)Nc2cccc(C(=O)Nc3cc(C(=O)Nc4ccc(S(=O)(=O)O)c5cc(S(=O)(=O)O)cc(S(=O)(=O)O)c45)ccc3C)c2)c1` [Suramin, suramin], the “altered social behavior (social preference, social novelty)” value [1] was “corrected” and the “motor coordination (rotarod)” value [2] was “failed to restore normal motor coordination”.

From patent publication US20160209428A1, “DIAGNOSTIC AND PREDICTIVE METABOLITE PATTERNS FOR DISORDERS AFFECTING THE BRAIN AND NERVOUS SYSTEM” (THE REGENTS OF THE UNIVERSITY OF CALIFORNIA, priority 2013, published 2016)
